In data set [1] the test system is A549. Description: SRB colorimetric cytotoxicity assay, A549. Type of data set: cell-based. Conditions: Homo sapiens, read-out: GI50 (M) A549. The text has this:
(§1) The aim of this assay is to evaluate the in vitro cytostatic (ability to delay or arrest tumor cell growth) or cytotoxic (ability to kill tumor cells) activity of the samples being tested.
(§2) A colorimetric assay, using sulforhodamine B (SRB) reaction has been adapted to provide a quantitative measurement of cell growth and viability (using the technique developed by Skehan et al., J. Natl. Cancer Inst. 1990 and following the protocol detailed in V. Vichai and K. Kirtikara (2006) Nature Protoc. 1, 1112-1116.)
(§3) This form of assay employs 96-well cell culture microplates. All the cell lines used in this study were obtained from the American Type Culture Collection (ATCC), unless otherwise indicated, and derive from different types of human cancer.
(§4) Cells were maintained in Dulbecco's Modified Eagle Medium (DMEM) (for A549, HT-29 and MDA-MB-231) or RPMI (for PSN-1) supplemented with 10% Fetal Bovine Serum (FBS), 2 mM L-glutamine, 100 U/mL penicillin and 100 U/mL streptomycin at 37° C., 5% CO2 and 98% humidity. For the experiments, cells were harvested from subconfluent cultures using trypsinization and resuspended in fresh medium before counting and plating.
(§5) Cells were seeded in 96 well microtiter plates, at 5×10^3 cells per well in aliquots of 150 μL, and allowed to attach to the plate surface for 18 hours (overnight) in drug free medium. After that, one control (untreated) plate of each cell line was fixed (as described below) and used for time zero reference value. Culture plates were then treated with test compounds (50 μL aliquots of 4× concentrated compound stock solutions made in complete culture medium) using ten serial dilutions (concentrations ranging from […]) and triplicate cultures (final concentration of DMSO being 1%). After 72 hours treatment, the antitumor effect was measured by using the SRB methodology: Briefly, cells were washed twice with PBS, fixed for 15 min in 1% glutaraldehyde solution at room temperature, rinsed twice in PBS, and stained in 0.4% SRB solution for 30 min at room temperature. Cells were then rinsed several times with 1% acetic acid solution and air-dried at room temperature. SRB was then extracted in 10 mM trizma base solution and the absorbance measured in an automated spectrophotometric plate reader at 490 nm. Effects on cell growth and survival were estimated by applying the NCI algorithm (Boyd M R and Paull K D. Drug Dev. Res. 1995, 34, 91-104).
(§6) Using the mean±SD of triplicates, a dose-response curve was automatically generated using nonlinear regression analysis to a 4-parameter logistic curve. Three reference parameters were calculated (NCI algorithm) by automatic interpolation: GI50=compound concentration that produces […] cell growth inhibition, as compared to control cultures.

The test system of data set [2] is MDA-MB-231. Description: SRB colorimetric cytotoxicity assay, MDA-MB-231. Type of data set: cell-based. As to conditions: Homo sapiens, read-out: GI50 (M) MDA-MB-231.
Text: as §1, §2, §3, §4, §5, §6

In data set [3] the test system is PSN-1. Description: SRB colorimetric cytotoxicity assay, PSN-1. Type of data set: cell-based. Conditions: Homo sapiens, read-out: GI50 (M) PSN-1.
Text: as §1, §2, §3, §4, §5, §6

Data set [4] is described as follows: MTD (Maximum Tolerated Dose) determination. Conditions: Athymic Nude-Fox1 nu/nu, mouse, in vivo; iv, single dose; female athymic nude mice. On the procedure:
(§7) Female Athymic Nude-Fox1 nu/nu mice (Envigo) were utilized for all experiments. Animals (N=10/cage) were housed in individually ventilated cages (Sealsafe Plus®, Techniplast S.P.A.), on a 12-hour light-dark cycle at 21-23° C. and 40-60% humidity. Mice were allowed free access to irradiated standard rodent diet (Tecklad 2914C) and sterilized water. Animals were acclimated for five days prior to being individually tattoo-identified. Animal protocols were reviewed and approved according to the regional Institutional Animal Care and Use Committees.
(§8) Mice were randomly allocated into experimental groups and intravenously administered, once for the MTD (Maximum Tolerated Dose) determination or one administration a week during three consecutive weeks, for the MTMD (Maximum Tolerated Multiple Dose) determination study. The animals were administered with white formulation or with compound dissolved in the experimental formulation at different concentrations. The volume administered was always 10 mL/kg. Once administered, animals were monitored for clinical signs of systemic toxicity, changes in body weight and mortality up to 14 days after the administration.

A short description of data set [5]: MTMD (Maximum Tolerated Multiple Dose) determination. Type of data set: in vivo. As to conditions: iv, Q7dx3; female athymic nude mice. On the procedure: as §7, §8

Like-named read-outs stand apart in the source and are kept apart here.

As a reminder, the GI50 is the concentration giving 50% growth inhibition. Usually MTD stands for the highest dose tested that stayed within the study's limit of toxicity. Lower therefore signals poorer tolerability. Turning to `COC1=CC[C@@H]([C@@H](C)/C=C(C)/C=C\C=C/C(=O)N[C@H](C(=O)N/C=C\C[C@H](CC=C(C)C)OC(N)=O)C(C)(C)C)OC1=O` [Compound 3], the GI50 in data set [1] (A549, 72 h) was found to be 5.98e-11 M; in data set [2] (MDA-MB-231, 72 h) it was 9.05e-11 M; in data set [3] (PSN1, 72 h), 1.43e-10 M. The compound also registered an MTD at 14 days in data set [4] of 1 mg/kg. The same compound registered an MTMD in data set [5] of 1.0 mg/kg.
Take `COC1=CC[C@@H]([C@@H](C)/C=C(C)/C=C\C=C/C(=O)N[C@H](C(=O)N/C=C\C[C@H](C/C=C(\C)F)OC(N)=O)C(C)(C)C)OC1=O` [Compound 2]: the GI50 in data set [1] (A549, 72 h) was 4.55e-11 M; in data set [2] (MDA-MB-231, 72 h) it was 4.87e-11 M; in data set [3] (PSN1, 72 h) it was 2.27e-11 M. The same compound had an MTD at 14 days in data set [4] of 2 mg/kg. This compound registered an MTMD in data set [5] of 2.0 mg/kg.
Regarding `C/C=C\C[C@@H](C/C=C\NC(=O)[C@@H](NC(=O)\C=C/C=C\C(C)=C\[C@H](C)[C@@H]1CC=C(OC)C(=O)O1)C(C)(C)C)OC(N)=O` [PM060184, reference compound], the GI50 in data set [1] (A549, 72 hours treatment, SRB) came out at 1.71e-10 M; in data set [2] (MDA-MB-231, 72 hours treatment, SRB), 2.07e-10 M; in data set [3] (PSN1, 72 hours treatment, SRB) it was 1.87e-10 M. For the same compound, in data set [4], the MTD worked out at 16 mg/kg. Also, the MTMD in data set [5] is listed as 16.0 mg/kg.

These data come from patent publication US20250243174A1, “ANTITUMORAL COMPOUNDS” (PHARMA MAR, S.A., priority 2021, published 2025).
